Measured values taken from patent US20230172205A1 (priority 2020, published 2023).
Like-named read-outs stand apart in the source and are kept apart here.

Experiments:
Pyricularia oryzae = experiment: microbe, parasite or virus in culture; format: cell-based; conditions: Pyricularia oryzae, 168 h, read-out: Fungal growth (%) PYRIOR
[1] = system: Alternaria solani, sensitive wild-type isolate (wt); experiment: microbe, parasite or virus in culture; format: cell-based; conditions: 168 h, read-out: Fungal growth (%) ALTESO wt
Septoria tritici = experiment: microbe, parasite or virus in culture; format: cell-based; conditions: Zymoseptoria tritici, 168 h, read-out: Fungal growth (%) SEPTTR
[2] = system: Phakopsora pachyrhizi, strain with amino acid substitution F129L in the mitochondrial cytochrome b protein; experiment: Protective control of soybean rust on soybeans (PHAKPA P2); format: in vivo; conditions: for % PHAKPA (F129L) Disease level, P2 at 4 ppm: protective P2, 4 ppm; for % PHAKPA (F129L) Disease level, P2 at 4 ppm / % PHAKPA (F129L) Disease level, P2 at 16 ppm: soybean rust F129L strain; for % PHAKPA (F129L) Disease level, P2 at 16 ppm: protective P2, 16 ppm
[3] = system: Phakopsora pachyrhizi, strain with amino acid substitution F129L in the mitochondrial cytochrome b protein; experiment: Protective control of soybean rust on soybeans (PHAKPA P6); format: in vivo; conditions: for % PHAKPA (F129L) Disease level, P6 at 4 ppm: protective P6, 4 ppm; for % PHAKPA (F129L) Disease level, P6 at 4 ppm / % PHAKPA (F129L) Disease level, P6 at 16 ppm: soybean rust F129L strain; for % PHAKPA (F129L) Disease level, P6 at 16 ppm: protective P6, 16 ppm
[4] = system: Colletotrichum orbiculare; experiment: microbe, parasite or virus in culture; format: cell-based; conditions: 168 h, read-out: Fungal growth (%) COLLLA
[5] = system: Alternaria solani, Qo inhibitor-resistant isolate containing F129L in the mitochondrial cytochrome b protein; experiment: Micro titer plate test, activity against Alternaria solani causing early blight (ALTESO), F129L; format: cell-based; conditions: Alternaria solani, 168 h
[6] = system: Phakopsora pachyrhizi, isolate sensitive to Qo inhibitors (wt); experiment: Protective control of soybean rust on detached soybean leaves (PHAKPA P1 DL), wt isolate; format: in vivo; conditions: Table C6a
[7] = system: Phakopsora pachyrhizi, isolate with amino acid substitution F129L in the mitochondrial cytochrome b protein; experiment: Protective control of soybean rust on detached soybean leaves (PHAKPA P1 DL), F129L isolate; format: in vivo; conditions: Table C6b
Microdochium nivale = experiment: microbe, parasite or virus in culture; format: cell-based; conditions: 168 h, read-out: Fungal growth (%) MONGNI

In the case of CNC(=O)/C(=N/OC)c1cccc(C)c1CO/N=C(\C)c1cccc(C)c1 [Ex. 77], the activity at 0.016 ppm (Pyricularia oryzae) is reported as 20%, the activity at 0.016 ppm [1] is reported as 73% and the activity at 0.25 ppm (Septoria tritici) is reported as 49%. For the same molecule, the “PHAKPA (F129L) Disease level (%) P2 at 4 ppm” value ([2]; P2 at 4 ppm, untreated 92%) was 37%, the “% PHAKPA (F129L) Disease level, P2 at 4 ppm” value [2] was 67% and the “% PHAKPA (F129L) Disease level, P2 at 16 ppm” value [2] was 4%. For the same molecule, the “PHAKPA (F129L) Disease level (%), P6 at 16 ppm” value ([3]; P6 at 16 ppm, untreated 75%) was 20%, the “% PHAKPA (F129L) Disease level, P6 at 4 ppm” value [3] was 40% and the “% PHAKPA (F129L) Disease level, P6 at 16 ppm” value [3] was 3%. It also gave an activity at 0.063 ppm [4] of 39% and an activity at 0.016 ppm ([5]; Table C14, read-out: Fungal growth (%) ALTESO F129L) of 69%.
CNC(=O)/C(=N/OC)c1cccc(C)c1CO/N=C(\C)c1ccc(Cl)cc1 [Ex. 158] was tested, and the “PHAKPA P1 DL Disease level (%), Qo I-sensitive wt isolate (0% F129L)” value (“PHAKPA P1 DL Disease level (%) … (0% F129L)” for short) ([6]; 0.3 ppm, 0 ppm control 93) was 38%, the “PHAKPA P1 DL Disease level (%) … (0% F129L)” value ([6]; 1 ppm) was 7% and the “PHAKPA P1 DL Disease level (%) … (0% F129L)” value ([6]; 3 ppm) was 2%. For the same molecule, the “PHAKPA P1 DL Disease level (%) … (0% F129L)” value ([6]; 10 ppm) was 1%, the “PHAKPA P1 DL Disease level (%) … (0% F129L)” value ([6]; 30 ppm) was 4% and the “PHAKPA P1 DL Disease level (%) … (0% F129L)” value ([6]; 100 ppm) was 5%. For the same molecule, the “PHAKPA P1 DL Disease level (%) … (0% F129L)” value ([6]; 300 ppm) was 4%, the “PHAKPA P1 DL Disease level (%), Qo I-resistant F129L isolate (100% F129L)” value (from here on “PHAKPA P1 DL Disease level (%) … (100% F129L)”) ([7]; 0.3 ppm, 0 ppm control 93) was 87% and the “PHAKPA P1 DL Disease level (%) … (100% F129L)” value ([7]; 1 ppm) was 57%. The “PHAKPA P1 DL Disease level (%) … (100% F129L)” value ([7]; 3 ppm) was 8%, the “PHAKPA P1 DL Disease level (%) … (100% F129L)” value ([7]; 10 ppm) was 2% and the “PHAKPA P1 DL Disease level (%) … (100% F129L)” value ([7]; 30 ppm) was 4%. The “PHAKPA P1 DL Disease level (%) … (100% F129L)” value ([7]; 100 ppm) was 4%, the “PHAKPA P1 DL Disease level (%) … (100% F129L)” value ([7]; 300 ppm) was 5% and the activity at 0.016 ppm (Pyricularia oryzae) was 38%. For the same molecule, the activity at 0.016 ppm (Microdochium nivale) was 71%, the activity at 0.016 ppm [1] was 66% and the “PHAKPA (F129L) Disease level (%) P2 at 4 ppm” value ([2]; Table C2, protective, inoculation 2 days after spraying, 4 ppm, % diseased leaf area on soybean, untreated 100) was 1%. For the same molecule, the “% PHAKPA (F129L) Disease level, P2 at 4 ppm” value [2] was 0%, the “% PHAKPA (F129L) Disease level, P2 at 16 ppm” value [2] was 0% and the “PHAKPA (F129L) Disease level (%) P6 at 4 ppm” value ([3]; Table C2, protective, inoculation six days after spraying, 4 ppm, % diseased leaf area on soybean, untreated 99) was 4%. For the same molecule, the “% PHAKPA (F129L) Disease level, P6 at 4 ppm” value [3] was 2%, the “% PHAKPA (F129L) Disease level, P6 at 16 ppm” value [3] was 0% and the activity at 0.016 ppm ([5]; Table C5, read-out: Fungal growth (%) ALTESO F129L) was 79%.
